Values joined by “and” are separate entries in the source; they are usually repeats but may differ in a detail not shown here. Equal values may be shown once.

This note sets out measurements from PubChem BioAssay AID1919009 (Molecular Pharmacology Branch, DTP, NCI, 2023).

This assay concerns K24384-001-R-PDC complex spheroid growth. Description: Anticancer human tumor K24384-001-R-PDC patient-derived pancreatic adenocarcinoma cell line growth inhibition [AhR]. As to conditions: for viability, T/C: stronger effect = lower value. In short, it runs like this:
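Spheroids combined tumor cells with HUVEC endothelial cells and human MSCs as stroma. AhR antagonists were paired with standard or investigational drugs, each dosed in half-log steps down from near clinical Cmax, or from 10 microM where Cmax was unknown.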
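For viability, T/C in this document: percent of DMSO vehicle-treated spheroid viability set as 100%.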

As to `CC(C)CC(NC(=O)C(Cc1ccccc1)NC(=O)c1cnccn1)B(O)O` (configuration not stated) + Cc1ccccc1N=Nc1ccc(NC(=O)c2ccnn2C)c(C)c1, the 50% inhibitory concentration (IC50) is, setting by setting: (curve of first compound, second compound 0.1 µM) 10.7 nM; (curve of first compound, second compound 0.316 µM) 9.9 nM; (curve of first compound, second compound 1 µM) 11.2 nM; (curve of first compound, second compound 3.16 µM) 9.78 nM; (curve of first compound, second compound 10 µM) 10.5 nM. For the same molecule, the viability, T/C reads like this: (second compound 0.1 µM, first compound 0.000949 µM) 106%; (second compound 0.1 µM, first compound 0.003 µM) 90%; (second compound 0.1 µM, first compound 0.00949 µM) 57.3%; (second compound 0.1 µM, first compound 0.03 µM) 1.13%; (second compound 0.1 µM, first compound 0.0949 µM) 0.15%; (second compound 0.1 µM, first compound 0.3 µM) 0.42%. Also, the viability, T/C is 95.3% (second compound 0.316 µM, first compound 0.000949 µM); 76.8% (second compound 0.316 µM, first compound 0.003 µM); 54% (second compound 0.316 µM, first compound 0.00949 µM); 1.07% (second compound 0.316 µM, first compound 0.03 µM); 0.38% (second compound 0.316 µM, first compound 0.0949 µM); 0.33% (second compound 0.316 µM, first compound 0.3 µM). Also, the viability, T/C is, setting by setting: (second compound 1 µM, first compound 0.000949 µM) 104%; (second compound 1 µM, first compound 0.003 µM) 79.5%; (second compound 1 µM, first compound 0.00949 µM) 60.4%; (second compound 1 µM, first compound 0.03 µM) 1.14%; (second compound 1 µM, first compound 0.0949 µM) 0.44%; (second compound 1 µM, first compound 0.3 µM) 0.38%. The viability, T/C is, setting by setting: (second compound 3.16 µM, first compound 0.000949 µM) 83.9%; (second compound 3.16 µM, first compound 0.003 µM) 102%; (second compound 3.16 µM, first compound 0.00949 µM) 51.3%; (second compound 3.16 µM, first compound 0.03 µM) 1.31%; (second compound 3.16 µM, first compound 0.0949 µM) 0.31%; (second compound 3.16 µM, first compound 0.3 µM) 0.48%. In addition, the viability, T/C was 97.4% (second compound 10 µM, first compound 0.000949 µM); 115% (second compound 10 µM, first compound 0.003 µM); 54.7% (second compound 10 µM, first compound 0.00949 µM); 2.19% (second compound 10 µM, first compound 0.03 µM); 1.72% (second compound 10 µM, first compound 0.0949 µM); 0.66% (second compound 10 µM, first compound 0.3 µM).
As to `COc1cc(Nc2ncc3c(n2)-c2ccc(Cl)cc2C(c2c(F)cccc2OC)=NC3)ccc1C(=O)O`, the viability, T/C (compound 0.0316 µM) was 97.3% and 91.9% and 85.7%; the viability, T/C (compound 0.1 µM) was 68.5% and 72.4% and 74.3%; the viability, T/C (compound 0.316 µM) was 63.9% and 60% and 69.9%; the viability, T/C (compound 1 µM) is 44.3% and 55.1% and 50.6%; the viability, T/C (compound 3.16 µM) was 52.4% and 54.8% and 52.6%; the viability, T/C (compound 10 µM) was 55.5% and 62.7% and 57%. For the setting “curve of compound”, the half-maximal inhibitory concentration (IC50) was more than 10000 nM.

By IC50 is commonly meant the concentration needed to halve the response being measured. Broadly, the viability, T/C is the ratio of treated to control.
